Experimental findings from patent US10189803B2, “Synthesis of therapeutic and diagnostic drugs centered on regioselective and stereoselective ring opening of aziridinium ions” (ILLINOIS INSTITUTE OF TECHNOLOGY, priority 2008, dated 2019) are described below.

The test system of one series is Hela cells. Description: Antiproliferative activity, MTS assay, HeLa cells. Type of series: cell-based, Human. The following applies: Homo sapiens; 72 h incubation, MTS. The method, then:
(§1) Cell culture Human cervix HeLa cell line was obtained from ATCC (Rockville, Md.) and cultured in minimum essential medium (MEM) with L-glutamine (2 mM), Earle's BSS and sodium bicarbonate (1.5 g/L), supplemented with 10% fetal bovine serum (FBS), non-essential amino acids (0.1 mM), sodium pyruvate (1 mM) and antibiotic/antimycotic solution in a humidified atmosphere with 5% CO2 at 37° C. […] Lung fibroblast MRC-5 cell line was obtained from ATCC (Rockville, Md.) and cultured in ATCC formulated EMEM, supplemented with 10% fetal bovine serum (FBS) in a humidified atmosphere with 5% CO2 at 37° C.
(§2) Antiproliferative Activity. Cells were seeded onto 96-well plate at density of 2,000 cells for Hela cells or 5,000 cells for HT29 cells or 5,000 cells for MRC-5 per well in 0.1 mL complete medium and allowed to attach for 24 h. Varying concentrations of the test compounds in the final volume of 0.1 mL complete medium were then added in at least five series dilutions and incubated for 72 h. To measure cell proliferation, the Cell Titer 96 aqueous nonreactive cell proliferation assay (Promega Life Sciences, Madison, Wis.) was used according to the manufacturer's instructions. Briefly, MTS (2 mg/mL) and PMS (0.92 mg/ml) were mixed in a ratio of 20:1. An aliquot (20 μL) of the MTS/PMS mixture was added into each well, and the plate was incubated for 3 h at 37° C. Optical absorbance at 490 nm was then recorded with an enzyme-linked immunosorbent assay (ELISA) microtiter plate reader (Biotek). Each experiment was done at least in triplicate. Antiproliferative activity of the test compounds was expressed as the fraction of optical densities of treated the cells relative to the untreated solvent controls.^31 The data were plotted in GraphPad Prizm 3.0. Nonlinear regression analysis was used to determine IC50 values.
(§3) Cell culture. Human cervix HeLa cell line was obtained from ATCC (Rockville, Md.) and cultured in minimum essential medium (MEM) with L-glutamine (2 mM), Earle's BSS and sodium bicarbonate (1.5 g/L), supplemented with 10% fetal bovine serum (FBS), non-essential amino acids (0.1 mM), sodium pyruvate (1 mM) and antibiotic/antimycotic solution in a humidified atmosphere with 5% CO2 at 37° C.
as §2, with “activity.” for “Activity.”, “cells” for “cells or 5,000 cells for MRC-5”, “controls.” for “controls.^31”

Another series concerns HT29 cells. Description: Antiproliferative activity, MTS assay, HT29 cells. It is filed as cell-based, Human. The following applies: Homo sapiens, HT-29, 72 h incubation. How it is done:
as §1, §2, §3
as §2, with “activity.” for “Activity.”, “cells” for “cells or 5,000 cells for MRC-5”, “controls.” for “controls.^31”
(In general: Formazan colour is commonly taken as a measure of viable cells.)

Series [1] can be described thus: TEM measurement of self-assembled micelles. It is filed as physicochemical. The conditions noted are these: aqueous solution. The text has this:
Amphifacial cholic acid is a good targeting moiety, and its conjugation to MR contrast agent is expected to form helical globular aggregates with a favorable pharmacokinetic and relaxivity profile. In FIG. 41, cholic acid was converted to an activated amide 1, which was further reacted with a functionalized NE3TA (2) containing an amino group to provide Compound 3. The t-butyl group of Compound 3 was removed by treatment with 4M HCl in 1,4-dioxane to provide CA-NE3TA (4). […] The Gd(III) complex of CA-NE3TA was prepared as described above. Gd(CA-NE3TA) self-assembles into nano-sized micells as evidenced by TEM measurement (˜10 nm, FIG. 24). […] Aggregation of Gd(CA-NE3TA) as evidenced by TEM images is proposed to result from heating during the complexation reaction and/or gadolinium induced cross linking. T1 relaxivity of Gd(CA-NE3TA) in aqueous solution (0.2 mM) was measured to 10.85 mM^−1 s^−1. […] This increase in relaxivity may be a result of slower molecular rotation due to aggregation of the complex as evidenced by the TEM image.
TEM measurement. Stock solutions of compounds CA-NE3TA and Gd(CA-NE3TA) were prepared in 18 MΩ H2O and diluted to the final concentrations of CA-NE3TA (10 μM, pH=5) and Gd(CA-NE3TA) (100 μM or 10 μM, pH=7). In triplicate, a 5 μL aliquot of CA-NE3TA solution was placed on a gold-coated grid (300 mesh, formvar support film, Cat #FF300-Au, Electron Microscopy Sciences, PA). The sample on the grid was air-dried for 5-10 min after each deposition. The grid was air-dried overnight, transferred into a desiccator, and further dried in vacuo for 1.5 days. The sample of Gd(CA-NE3TA) (10 μM) was prepared as described above. […]
TEM images of CDCA-NE3TA indicate that the hydrophobic bile acid conjugated to NE3TA forms discrete semi-square micelles in nanometer size (˜15-60 nm, FIG. 29). […] Aza cholic acid 10 was prepared starting from the readily available cholic acid according to the literature. […]

Series [2] can be described thus: T1 relaxivity of Gd(III) complexes (Bruker mq60 NMR analyzer). It is filed as physicochemical. The conditions noted are these: aqueous solution (0.2 mM). How it is done: Gd(NE3TA) and Gd(NE3TA-Bn) were synthesized by reacting GdCl3 with NE3TA and NE3TA-Bn, respectively. NE3TA or NE3TA-Bn were mixed with GdCl3 in a molar ratio of 1 to 0.9, and the resulting mixture at pH 7 was heated to 90° C. and stirred until no free Gd(III) ions were detected using an ArsenazoIII (AAIII) assay. Relaxivity of the aqueous […] complexes (pH 7) was measured on a Bruker MQ60 NMR analyzer, and the concentration of the Gd(III) complexes was measured by ICP-MS. […] NE3TA was successfully conjugated with the most common bile acid, cholic acid (FIG. 41).
(§4) Relaxivity Measurements. Relaxivity measurements were acquired by taking the slope of a plot of 1/T1 (s^−1) versus concentration (mM). The longitudinal water proton relaxation times (T1) were determined using a Bruker mq60 NMR (Bruker Canada, Milton, ON, Canada) analyzer operating at 59.97 MHz and 37° C. The agent was added to Millipore water and serially diluted by 0.5 to give a series of 5 concentrations (500 μL total volume) for each relaxivity trial. The T1 was determined using an inversion recovery pulse sequence with 10 different pulse separations per sample, 4 repetitions per echo time, phase cycling, and a recycle delay that is ≥5 times the T1 of each given sample. All curves were fit using a monoexponential curve fitting formula.
Relaxivity of the aqueous Gd(III) complexes (˜pH 7) were measured on a Bruker MQ60 NMR analyzer, and the concentration of the Gd(III) complexes were measured by ICP-MS. […] As mentioned above, the on and off binding to Gd(III) of one of the pendant coordinates would have resulted enhanced relaxivity of Gd(C-NETA) compared to Gd(C-DOTA). Among the evaluated Gd(III) complexes, Gd(C-NE3TA) gives the highest T1 relaxivity at 60 MHz, probably due to increase in q. The relaxation rates for the Gd(III) chelates are dominated by the inner-sphere dipolar coupling between the coordinated water molecule and the paramagnetic Gd(III). The measured relaxivities arise from the exchange between the coordinated water molecule and the surrounding water molecules in solution. […] No indication of Gd(III) dissociation is evident from the relaxivity data, which is in agreement with the in vitro serum stability and in vivo biodistribution studies.
as §4, with “The T1 relaxivity was determined” for “The T1 was determined”

For orientation: IC50 means the concentration that gives 50% inhibition. Lower therefore signals greater potency. Take `CC(CCC(=O)Nc1ccc(CC(CN2CCN(CC(=O)O)CCN(CC(=O)O)CC2)NCC(=O)O)cc1)C1CCC2C3C(O)CC4CC(O)CCC4(C)C3CCC12C` (centres unmarked) [CDCA-NE3TA, [4-Carboxymethyl-7-(2-(carboxymethyl-amino)-3-{4-[4-(3,7-dihydroxy-10,13-dimethylhexadecahydro-cyclopenta[a]phenanthren-17-yl)-pentanoylamino]-phenyl}-propyl)-[1,4,7]triazonan-1-yl]-acetic acid]: the IC50 was 24.6 ± 1 µM with Hela cells and 15.5 ± 3.2 µM in the series on HT29 cells. Also, in series [1], the “micelle size (TEM)” value was 15-60 nm.

As for `CC(CCC(=O)Nc1ccc(CC(CN2CCN(CC(=O)O)CCN(CC(=O)O)CC2)NCC(=O)O)cc1)C1CCC2C3C(O)CC4CC(O)CCC4(C)C3CC(O)C12C` (centres unmarked) [CA-NE3TA, [4-Carboxymethyl-7-(2-(carboxymethyl-amino)-3-{4-[4-(3,7,12-trihydroxy-10,13-dimethyl-hexadecahydro-cyclopenta[a]phenanthren-17-yl)-pentanoylamino]-phenyl}-propyl)-[1,4,7]triazonan-1-yl]-acetic acid], the IC50 with Hela cells amounted to 24 ± 2.7 µM; in the series with HT29 cells, 8.3 ± 2.4 µM. Besides, the “micelle size (TEM)” value in series [1] was 10-50 nm.

Compound `CC(CCC(=O)Nc1ccc(CC(CN2CCN(CC(=O)O)CCN(CC(=O)O)CC2)NCC(=O)O)cc1)C1CCC2C3C(O)CC4CC(O)CCC4(C)C3CC(O)C12C.[Gd]` (centres unmarked) [Gd(CA-NE3TA)] registered a T1 relaxivity in series [2] of 10.85 mM⁻¹ s⁻¹. For the same compound, the “micelle size (TEM)” value in series [1] is about 10 nm.
